From patent publication US8648076B2, “Cysteine protease inhibitors and their therapeutic applications” (Hybrigenics SA, priority 2005, dated 2014)

How the values were obtained:
Caspase 3 = molecular target: T1, Caspase 3 (Homo sapiens, UniProt P42574); test: Caspase 3 activity assay; type: biochemical; conditions: 500 nM Ac-DEVD-AMC, 3.2 nM enzyme, 30 min pre-incubation at 25° C., 60 min at 37° C.; sigmoidal fit; AF: Autofluorescent; read-out: Casp3 (inhibition of cysteine protease activity)
T1 sequence (P42574 29-175 limits assumed): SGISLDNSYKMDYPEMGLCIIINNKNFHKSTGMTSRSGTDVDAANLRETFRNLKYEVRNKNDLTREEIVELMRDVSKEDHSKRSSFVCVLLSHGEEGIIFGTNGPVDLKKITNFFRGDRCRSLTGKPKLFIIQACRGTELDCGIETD
T1 sequence (P42574 176-277 limits assumed): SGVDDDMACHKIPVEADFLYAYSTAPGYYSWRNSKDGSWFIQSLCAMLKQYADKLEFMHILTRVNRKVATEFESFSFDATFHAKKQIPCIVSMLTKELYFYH
Experimental: Compounds stocks (100 mM) were stored at −20° C. in DMSO. […] Reactions were performed as duplicates in Black LJL 96 well plates (HE microplates; Molecular Devices; 20 μl final reaction volume). The substrate concentration for caspase 3 specificity assay was 500 nM (Ac-DEVD-AMC; Promega). […] The concentrations were determined in order to perform specificity assays under initial velocities at fixed substrate concentration. Compounds were pre-incubated with enzymes for 30 minutes at 25° C. Reactions were initiated by addition of substrate to the plates containing the enzymes (+/−compounds) diluted in assay buffer. Reactions were incubated for 60 minutes at 37° C. Reactions were stopped by adding acetic acid (100 mM final). Readings were performed on a Pherastar Fluorescent Reader (BMG). δ Emission 380 nm; δ Excitation=460 nm. Data (mean values+/− standard deviation) were analyzed as % of control (no compound) and plotted as percentage versus the Log of the compound concentration using GraphPad (Prism). Data were fitted to a sigmoidal model (variable slope).

USP8 = molecular target: T2, USP8 (Homo sapiens, UniProt P40818); test: USP8 activity assay; type: biochemical; conditions: 400 nM Ub-AMC, pH8.8, 30 min pre-incubation at 25° C., 60 min at 37° C.; sigmoidal fit; AF: Autofluorescent; read-out: USP 8 (inhibition of cysteine protease activity)
T2 sequence (P40818 1-1118): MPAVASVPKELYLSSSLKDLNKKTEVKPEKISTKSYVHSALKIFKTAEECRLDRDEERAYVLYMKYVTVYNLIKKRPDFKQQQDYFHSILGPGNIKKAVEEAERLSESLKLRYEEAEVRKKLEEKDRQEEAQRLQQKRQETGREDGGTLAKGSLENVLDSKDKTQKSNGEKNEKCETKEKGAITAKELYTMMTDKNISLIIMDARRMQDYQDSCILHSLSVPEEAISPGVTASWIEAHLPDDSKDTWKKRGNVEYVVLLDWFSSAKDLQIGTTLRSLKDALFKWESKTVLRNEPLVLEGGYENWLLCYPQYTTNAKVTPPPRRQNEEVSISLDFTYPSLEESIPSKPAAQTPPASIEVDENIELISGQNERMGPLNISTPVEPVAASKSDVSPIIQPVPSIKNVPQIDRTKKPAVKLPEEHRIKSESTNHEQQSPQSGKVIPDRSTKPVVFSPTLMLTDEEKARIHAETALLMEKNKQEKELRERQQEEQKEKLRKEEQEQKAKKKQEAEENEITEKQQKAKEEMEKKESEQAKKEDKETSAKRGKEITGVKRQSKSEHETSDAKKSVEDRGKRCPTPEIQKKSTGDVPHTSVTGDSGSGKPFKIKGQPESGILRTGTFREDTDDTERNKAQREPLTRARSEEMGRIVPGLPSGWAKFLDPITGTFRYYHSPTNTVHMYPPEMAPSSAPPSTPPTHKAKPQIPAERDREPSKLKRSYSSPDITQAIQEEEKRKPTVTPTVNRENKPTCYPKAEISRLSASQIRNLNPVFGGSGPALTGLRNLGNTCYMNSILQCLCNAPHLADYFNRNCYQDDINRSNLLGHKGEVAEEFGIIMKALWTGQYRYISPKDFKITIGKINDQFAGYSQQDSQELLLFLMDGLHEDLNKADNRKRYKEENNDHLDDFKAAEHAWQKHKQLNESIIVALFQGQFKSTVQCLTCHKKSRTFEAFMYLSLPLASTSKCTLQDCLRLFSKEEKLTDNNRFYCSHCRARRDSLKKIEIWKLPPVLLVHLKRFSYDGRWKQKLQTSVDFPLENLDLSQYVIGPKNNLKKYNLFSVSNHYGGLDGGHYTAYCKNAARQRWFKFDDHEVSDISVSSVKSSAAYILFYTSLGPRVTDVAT

| Structure (SMILES) | IC50 (Caspase 3) [µM] | IC50 (USP8) [µM] |
| --- | --- | --- |
| N#Cc1nc2c(nc1C#N)-c1ccccc1C2=NOCc1ccccc1 (mixture of isomers) [Example 13C, 9-Benzyloxyimino-9H-indeno[1,2-b]pyrazine-2,3-dicarbonitrile] | > 100 | 0.85 |
| C=CCON=C1c2ccccc2-c2nc(C#N)c(C#N)nc21 (mixture of isomers) [Example 13b, 9-(Allyloxyimino)-9H-indeno[1,2-b]pyrazine-2,3-dicarbonitrile] | > 100 | 0.56 |
| CCON=C1c2ccccc2-c2nc(C#N)c(C#N)nc21 (mixture of isomers) [Example 13d, 9-Ethoxyimino-9H-indeno[1,2-b]pyrazine-2,3-dicarbonitrile] | > 100 |  |
| N#Cc1nc2c(nc1C#N)-c1ccccc1C2=Nc1ccccc1 (mixture of isomers) [Example 14, 9-[phenylimino]-9H-indeno[1,2-b]pyrazine-2,3-dicarbonitrile] | 1.3 | 0.35 |
| CC(=O)O/N=C1\c2ccccc2-c2nc(C(N)=O)c(C#N)nc21 (single isomer, unassigned) [Example 35, 2-cyano-9-acetoxyimino-9H-indeno[1,2-b]pyrazine-3-carboxylic acid amide] | 0.12 | 0.027 |
| N#Cc1nc2c(nc1C#N)-c1ccccc1C2=O [Example 1, 9-oxo-9H-indeno[1,2-b]pyrazine-2,3-dicarbonitrile] | 0.69 | 0.29 |
| COc1nc2c(nc1C#N)C(=O)c1ccccc1-2 [Example 3, 3-methoxy-9-oxo-9H-indeno[1,2-b]pyrazine-2-carbonitrile] | > 100 | 31 |
| CN(C)c1nc2c(nc1C#N)C(=O)c1ccccc1-2 [Example 4, 3-dimethylamino-9-oxo-9H-indeno[1,2-b]pyrazine-2-carbonitrile] | > 100 | > 100 |
| COCCOc1nc2c(nc1C#N)C(=O)c1ccccc1-2 [Example 5, 3-(2-methoxy-ethoxy)-9-oxo-9H-indeno[1,2-b]pyrazine-2-carbonitrile] | > 100 | 53 |
| N#Cc1nc2c(nc1O)-c1ccccc1C2=O [Example 6, 3-hydroxy-9-oxo-9H-indeno[1,2-b]pyrazine-2-carbonitrile] | 9.3 | 8.4 |
| N#Cc1nc2c(nc1N)-c1ccccc1C2=O [Example 7, 3-amino-9-oxo-9H-indeno[1,2-b]pyrazine-2-carbonitrile] | > 100 | 48 |
| N#Cc1nc2c(nc1N1CCC(F)(F)CC1)-c1ccccc1C2=O [Example 8, 3-(4,4-difluoro-piperidin-1-yl)-9-oxo-9H-indeno[1,2-b]-pyrazine-2-carbonitrile] | > 100 | > 100 |
| N#Cc1nc2c(nc1Cl)-c1ccccc1C2=O [Example 9, 3-chloro-9-oxo-9H-indeno[1,2-b]pyrazine-2-carbonitrile] | > 100 | 16.2 |
| N#Cc1nc2c(nc1C#N)C1(OCCO1)c1ccccc1-2 [Example 10] | > 100 | 13 |
| N#Cc1nc2c(nc1C(N)=O)-c1ccccc1/C2=N\O [Example 11, 2-cyano-9-[hydroxyimino]-9H-indeno[1,2-b]pyrazine-3-carboxylic acid amide] | 2.3 | 0.73 |
| N#Cc1nc2c(nc1C#N)-c1ccccc1C2=NO [Example 12, 9-[hydroxyimino]-9H-indeno[1,2-b]pyrazine-2,3-dicarbonitrile] | 5.6 | 7 |
| CON=C1c2ccccc2-c2nc(C#N)c(C#N)nc21 [Example 13a, 9-(methoxyimino)-9H-indeno[1,2-b]pyrazine-2,3-dicarbonitrile] | 52 | 0.98 |

| Structure (SMILES) | IC50 (Caspase 3) [µM] | IC50 (USP8) [µM] |
| --- | --- | --- |
| N#Cc1nc2c(nc1C#N)-c1ccccc1/C2=N/Oc1ccccc1 [Example 13e, 9-Phenoxyimino-9H-indeno[1,2-b]pyrazine-2,3-dicarbonitrile] | > 100 | 0.24 |
| Cc1cccc2c1Cc1nc(C#N)c(C#N)nc1-2 [Example 16c, 8-Methyl-9H-indeno[1,2-b]pyrazine-2,3-dicarbonitrile] | > 100 | > 100 |
| COc1ccc2c(c1)-c1nc(C#N)c(C#N)nc1C2=O [Example 17a, 6-Methoxy-9-oxo-9H-indeno[1,2-b]pyrazine-2,3-dicarbonitrile] | 10 | 4 |
| COc1cc2c(cc1OC)-c1nc(C#N)c(C#N)nc1C2=O [Example 17b, 6,7-Dimethoxy-9-oxo-9H-indeno[1,2-b]pyrazine-2,3-dicarbonitrile] | 51 | 2.5 |
| Cc1cccc2c1C(=O)c1nc(C#N)c(C#N)nc1-2 [Example 17c, 8-Methyl-9-oxo-9H-indeno[1,2-b]pyrazine-2,3-dicarbonitrile] | 13 | 3.1 |
| COc1ccc2c(c1OC)C(=O)c1nc(C#N)c(C#N)nc1-2 [Example 17d, 7,8-Dimethoxy-9-oxo-9H-indeno[1,2-b]pyrazine-2,3-dicarbonitrile] | 1.8 | 0.71 |
| Cc1ccc2c(c1)-c1nc(C#N)c(C#N)nc1C2=O [Example 17e, 6-Methyl-9-oxo-9H-indeno[1,2-b]pyrazine-2,3-dicarbonitrile] | 3.3 | 0.93 |
| COc1ccc(OC)c2c1C(=O)c1nc(C#N)c(C#N)nc1-2 [Example 17f, 5,8-Dimethoxy-9-oxo-9H-indeno[1,2-b]pyrazine-2,3-dicarbonitrile] | 2 | 0.81 |
| N#Cc1nc2c(nc1C#N)-c1ccc(Cl)cc1C2=O [Example 17g, 7-Chloro-9-oxo-9H-indeno[1,2-b]pyrazine-2,3-dicarbonitrile] | 0.29 | 0.096 |
| N#Cc1nc2c(nc1C#N)-c1ccc(F)cc1C2=O [Example 17h, 7-Fluoro-9-oxo-9H-indeno[1,2-b]pyrazine-2,3-dicarbonitrile] | 1 | 0.25 |
| COc1ccc2c(c1)C(=O)c1nc(C#N)c(C#N)nc1-2 [Example 17i, 7-Methoxy-9-oxo-9H-indeno[1,2-b]pyrazine-2,3-dicarbonitrile] | 2 | 2.1 |
| N#Cc1nc2c(nc1C#N)-c1ccc(O)cc1C2=O [Example 17j, 7-Hydroxy-9-oxo-9H-indeno[1,2-b]pyrazine-2,3-dicarbonitrile] | 47 | > 100 |
| N#Cc1nc2sc3ccccc3c2nc1C#N [Example 19, benzo[4,5]thieno[2,3-b]pyrazine-2,3-dicarbonitrile] | > 100 | > 100 |
| N#Cc1nc2c(nc1C#N)C(=O)c1ccccc1C2=O [Example 20, 5,10-dioxo-5,10-dihydro-benzo[g]quinoxaline-2,3-dicarbonitrile] | > 100 | > 100 |
| CCO/C(O)=C(\C#N)c1nc2c(nc1C#N)C(=O)c1ccccc1-2 [Example 22, 3-(1-cyano-2-ethoxy-2-hydroxy-vinyl)-9-oxo-9H-indeno[1,2-b]pyrazine-2-carbonitrile] | > 100 |  |
| N#Cc1nc2c(nc1CC(N)=O)-c1ccccc1C2=O [Example 26, 2-(2-cyano-9-oxo-9H-indeno[1,2-b]pyrazin-3-yl)-acetamide] |  | 11 |
